pIC50: −log10 of the molar value. Activity calls are given as the source filed them. The rule behind the calls is not given here.
Assays:
[1] = molecular target: T1, Histone deacetylase 1 (Homo sapiens, UniProt Q13547); assay: Inhibition of purified human HDAC1 using Ac-Leu-Gly-(e-Ac)Lys-AMC by fluorometric HDAC assay
[2] = molecular target: T2, Androgen receptor (Homo sapiens, UniProt P10275); assay: Anti-androgenic activity at androgen receptor (unknown origin) expressed in HEK293 cells by BRET assay; assay type: cell-based
T2 sequence (P10275 whole entry): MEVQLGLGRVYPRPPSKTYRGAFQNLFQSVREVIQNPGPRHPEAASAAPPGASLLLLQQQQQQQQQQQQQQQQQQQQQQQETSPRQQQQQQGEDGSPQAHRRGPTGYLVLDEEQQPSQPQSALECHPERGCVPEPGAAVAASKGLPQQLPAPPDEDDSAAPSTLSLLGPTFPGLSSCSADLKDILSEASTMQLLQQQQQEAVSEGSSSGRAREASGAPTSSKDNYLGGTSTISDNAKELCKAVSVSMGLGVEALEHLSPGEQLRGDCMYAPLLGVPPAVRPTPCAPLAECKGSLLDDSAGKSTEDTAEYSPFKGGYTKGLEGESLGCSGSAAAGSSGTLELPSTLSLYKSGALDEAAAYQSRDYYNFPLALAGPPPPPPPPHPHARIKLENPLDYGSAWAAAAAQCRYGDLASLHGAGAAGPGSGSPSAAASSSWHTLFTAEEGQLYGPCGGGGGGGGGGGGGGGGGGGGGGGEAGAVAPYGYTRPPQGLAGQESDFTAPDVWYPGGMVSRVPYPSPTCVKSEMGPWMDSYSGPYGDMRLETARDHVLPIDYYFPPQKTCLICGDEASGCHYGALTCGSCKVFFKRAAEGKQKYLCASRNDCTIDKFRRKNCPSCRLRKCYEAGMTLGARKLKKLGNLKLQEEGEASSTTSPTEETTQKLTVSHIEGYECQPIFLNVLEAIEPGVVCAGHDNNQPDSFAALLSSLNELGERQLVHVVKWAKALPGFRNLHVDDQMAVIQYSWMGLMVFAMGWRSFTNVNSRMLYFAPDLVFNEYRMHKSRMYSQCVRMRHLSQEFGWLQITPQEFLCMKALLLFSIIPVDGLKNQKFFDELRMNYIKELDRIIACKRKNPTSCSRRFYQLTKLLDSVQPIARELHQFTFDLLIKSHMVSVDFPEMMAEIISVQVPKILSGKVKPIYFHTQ

[3] = tested on: LNCaP; assay: Antiproliferative activity against human LNCAP cells assessed as reduction in cell viability at 100 uM incubated for 5 days; assay type: functional, cell-based; conditions: time 5.0 day
[4] = Inhibition of purified human HDAC2 using Ac-Leu-Gly-(e-Ac)Lys-AMC by fluorometric HDAC assay
[5] = molecular target: T1, Histone deacetylase 1; assay: Inhibition of purified human HDAC1 using Ac-Leu-Gly-(e-Ac)Lys-AMC pre-incubated for 18 hrs by fluorometric HDAC assay
[6] = tested on: PC-3; assay: Antiproliferative activity against human PC-3 cells assessed as reduction in cell viability at 1 to 100 uM incubated for 72 hrs; assay type: functional, cell-based; conditions: dose 1-100 µM
[7] = tested on: LNCaP; assay: Antiproliferative activity against human LNCAP cells assessed as reduction in cell viability at 10 uM incubated for 72 hrs; assay type: functional, cell-based
[8] = tested on: LNCaP; assay: Antiproliferative activity against human LNCAP cells assessed as reduction in cell viability at 100 uM incubated for 72 hrs; assay type: functional, cell-based
[9] = Antiproliferative activity against human BHPrS cells assessed as reduction in cell viability at 1 to 100 uM incubated for 72 hrs; assay type: toxicity, cell-based; conditions: dose 1-100 µM
[10] = tested on: BPH-1; assay: Antiproliferative activity against human BPH-1 cells assessed as reduction in cell viability at 1 to 100 uM incubated for 72 hrs; assay type: functional, cell-based; conditions: dose 1-100 µM
[11] = molecular target: Class 1 histone deacetylase (Homo sapiens) (UniProt Q13547+O15379+Q92769+Q9BY41); assay: Inhibition of type I nuclear HDACs in human LNCaP cells assessed as induction of histone H3 and H4 acetylation at 10 uM by Western blotting; assay type: cell-based
[12] = tested on: LNCaP; assay: Antiproliferative activity against human LNCAP cells assessed as reduction in cell viability at 10 uM incubated for 5 days; assay type: functional, cell-based; conditions: time 5.0 day

T1 sequence (Q13547 whole entry): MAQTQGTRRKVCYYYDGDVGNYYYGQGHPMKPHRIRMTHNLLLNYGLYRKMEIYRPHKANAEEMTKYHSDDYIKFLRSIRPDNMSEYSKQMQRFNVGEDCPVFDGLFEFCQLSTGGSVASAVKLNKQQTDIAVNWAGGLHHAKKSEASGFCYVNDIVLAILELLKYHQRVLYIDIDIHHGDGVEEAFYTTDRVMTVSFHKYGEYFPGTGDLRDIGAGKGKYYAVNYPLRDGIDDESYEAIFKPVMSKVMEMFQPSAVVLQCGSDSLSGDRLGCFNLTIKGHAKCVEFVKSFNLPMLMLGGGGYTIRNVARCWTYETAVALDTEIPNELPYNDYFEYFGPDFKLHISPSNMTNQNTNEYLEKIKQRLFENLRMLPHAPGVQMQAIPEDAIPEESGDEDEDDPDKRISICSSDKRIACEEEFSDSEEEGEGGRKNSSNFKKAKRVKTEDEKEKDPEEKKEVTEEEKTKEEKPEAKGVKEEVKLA
Class 1 histone deacetylase (Homo sapiens), sequence (O15379 whole entry, looked up): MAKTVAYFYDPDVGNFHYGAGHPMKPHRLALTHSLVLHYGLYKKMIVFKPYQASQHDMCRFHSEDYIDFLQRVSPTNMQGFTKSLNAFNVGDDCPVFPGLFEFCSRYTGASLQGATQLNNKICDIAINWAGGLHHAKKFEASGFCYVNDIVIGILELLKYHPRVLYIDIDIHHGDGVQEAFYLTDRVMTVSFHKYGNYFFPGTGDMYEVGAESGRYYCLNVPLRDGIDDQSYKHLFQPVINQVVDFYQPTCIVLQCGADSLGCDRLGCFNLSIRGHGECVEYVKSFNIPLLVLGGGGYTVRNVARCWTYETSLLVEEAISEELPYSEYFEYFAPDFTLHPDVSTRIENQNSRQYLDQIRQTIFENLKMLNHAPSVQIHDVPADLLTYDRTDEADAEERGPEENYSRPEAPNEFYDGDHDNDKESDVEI
Class 1 histone deacetylase (Homo sapiens), sequence (Q13547 whole entry, looked up): as the sequence (Q13547 whole entry) above
Class 1 histone deacetylase (Homo sapiens), sequence (Q92769 whole entry, looked up): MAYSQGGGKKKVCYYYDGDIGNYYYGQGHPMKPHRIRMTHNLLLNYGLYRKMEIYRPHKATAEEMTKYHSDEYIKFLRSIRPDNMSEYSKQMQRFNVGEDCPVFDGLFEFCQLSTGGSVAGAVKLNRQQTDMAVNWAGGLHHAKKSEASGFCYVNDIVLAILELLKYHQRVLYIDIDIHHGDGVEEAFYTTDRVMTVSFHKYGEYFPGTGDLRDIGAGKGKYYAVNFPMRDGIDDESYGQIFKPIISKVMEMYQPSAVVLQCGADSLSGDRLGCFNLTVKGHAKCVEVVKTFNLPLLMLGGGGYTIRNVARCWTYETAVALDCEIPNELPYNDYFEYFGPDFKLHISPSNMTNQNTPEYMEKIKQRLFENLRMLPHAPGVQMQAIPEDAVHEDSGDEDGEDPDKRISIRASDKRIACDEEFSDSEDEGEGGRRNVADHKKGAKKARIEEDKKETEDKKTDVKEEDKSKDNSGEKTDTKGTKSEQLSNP
Class 1 histone deacetylase (Homo sapiens), sequence (Q9BY41 whole entry, looked up): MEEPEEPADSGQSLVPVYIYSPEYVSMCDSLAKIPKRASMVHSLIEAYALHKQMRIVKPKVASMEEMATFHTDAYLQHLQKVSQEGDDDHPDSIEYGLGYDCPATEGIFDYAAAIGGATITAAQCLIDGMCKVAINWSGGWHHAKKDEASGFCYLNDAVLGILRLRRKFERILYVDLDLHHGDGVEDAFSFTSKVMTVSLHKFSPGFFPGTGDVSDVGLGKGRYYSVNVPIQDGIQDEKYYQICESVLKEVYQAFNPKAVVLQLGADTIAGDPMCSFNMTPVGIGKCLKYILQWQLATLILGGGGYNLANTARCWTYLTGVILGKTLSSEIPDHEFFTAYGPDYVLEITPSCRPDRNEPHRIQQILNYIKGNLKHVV

| Structure (SMILES) | pIC50 [1] | pIC50 [2] | Activity [3] | further results |
| --- | --- | --- | --- | --- |
| CC1(C)C(=O)N(c2ccc(C#N)c(C(F)(F)F)c2)C(=S)N1CCCCCC(=O)NO | 5.88 | 5.84 | Active | – |
| CC1(C)C(=O)N(c2ccc(C#N)c(C(F)(F)F)c2)C(=S)N1c1ccc(C(=O)Nc2ccccc2N)c(F)c1 | 5.54 | 5.77 | – | pIC50 [4]: 5.60 |
| CC1(C)C(=O)N(c2ccc(C#N)c(C(F)(F)F)c2)C(=S)N1c1ccc(C(=O)Nc2cc(-c3cccs3)ccc2N)cn1 | 4.95 | < 5.00 | – | – |
| CC1(C)C(=O)N(c2ccc(C#N)c(C(F)(F)F)c2)C(=S)N1CCCCCCC(=O)NO | 6.00 | 6.41 | Active | – |
| CC1(C)C(=O)N(c2ccc(C#N)c(C(F)(F)F)c2)C(=S)N1c1ccc(C(=O)Nc2cc(-c3ccccc3)ccc2N)cc1 | – | < 5.00 | – | pIC50 [5]: 5.22 |
| CC1(C)C(=O)N(c2ccc(C#N)c(C(F)(F)F)c2)C(=S)N1CCCC(=O)NO | 4.35 | 6.41 | Active | – |
| CC1(C)C(=O)N(c2ccc(C#N)c(C(F)(F)F)c2)C(=S)N1c1ccc(C(=O)Nc2ccccc2N)nc1 | 5.25 | 6.12 | – | – |
| CC1(C)C(=O)N(c2ccc(C#N)c(C(F)(F)F)c2)C(=S)N1c1ccc(C(=O)Nc2ccccc2N)cn1 | 5.19 | 5.63 | – | – |
| CC1(C)C(=O)N(c2ccc(C#N)c(C(F)(F)F)c2)C(=S)N1Cc1ccc(C(=O)Nc2ccccc2N)cc1 | 5.98 | 6.55 | – | Activity [6]: Active; Activity [7]: Active; Activity [8]: Active; Activity [9]: Non-Toxic; Activity [10]: Active; pIC50 [4]: 5.80 |
| CC1(C)C(=O)N(c2ccc(C#N)c(C(F)(F)F)c2)C(=S)N1CCCCC(=O)NO | 5.51 | 5.93 | Active | – |
| CC1(C)C(=O)N(c2ccc(C#N)c(C(F)(F)F)c2)C(=S)N1c1ccc(C(=O)Nc2cc(-c3cccs3)ccc2N)nc1 | 5.44 | < 5.00 | – | – |
| Nc1ccccc1NC(=O)c1ccc(CNC(=O)OCc2cccnc2)cc1 [ENTINOSTAT] | – | < 5.00 | Active | – |
| CC1(C)C(=O)N(c2ccc(C#N)c(C(F)(F)F)c2)C(=S)N1C12CC(CC(=O)Nc3ccccc3N)(C1)C2 | < 3.00 | 6.72 | – | – |
| CC1(C)C(=O)N(c2ccc(C#N)c(C(F)(F)F)c2)C(=S)N1c1ccc(C(=O)Nc2ccccc2N)cc1 | 5.88 | 6.01 | Active | Activity [6]: Active; Activity [7]: Active; Activity [8]: Active; Activity [9]: Non-Toxic; inhibition [11]: Active; Activity [10]: Active; Activity [12]: Active |
| CC1(C)C(=O)N(c2ccc(C#N)c(C(F)(F)F)c2)C(=S)N1c1ccc(C(=O)Nc2cc(-c3ccccc3)ccc2N)cn1 | 5.62 | < 5.00 | – | – |
| CC1(C)C(=O)N(c2ccc(C#N)c(C(F)(F)F)c2)C(=S)N1c1ccc(C(=O)Nc2cc(-c3ccccc3)ccc2N)nc1 | < 3.00 | < 5.00 | – | – |

From ChEMBL document CHEMBL5143530 (Bioorg Med Chem Lett, 2022)
